Laboratory results from patent US9487511B2, “Cyclopropanamine compound and use thereof” (Takeda Pharmaceutical Company Limited, priority 2014, dated 2016).
Where a name gives a salt, the structure may show the parent alone. Read-outs that look alike come from different tables or passages of the source. One block for each molecule: values may come before it.

Assays:
[1] = Evaluation of blood cell number in mouse; type: in vivo; details: male ICR mice, oral, repeated 7 or 9 days
Experimental: All compounds were repeatedly administered to the mice at a dose of 1 mg/kg, 10 mg/kg or 100 mg/kg (body weight) for 7 or 9 days. One day after the final administration of the compound, the whole blood was collected.
Using Sysmex XT-1800i (Sysmex Corporation), the white blood cell number, red blood cell number, and platelet number in the collected whole blood per unit volume were measured. The influence of each compound on each blood cell number was determined by calculating the number with the mean of each blood cell number of the mouse without administration of the compound (0 mg/kg group), and the mean of each blood cell number in the whole blood of a mouse with the administration of the compound.

[2] = Evaluation of hippocampal distribution in mouse; type: in vivo; details: male ICR mice, 10 mg/kg oral; for concentration at 1 h / concentration at 0.5 h: male, ICR, mouse, po, 10 mg/kg; for concentration at 0.5 h: 0.5 h after administration
[3] = 1 h after administration, sulfate

Platelets, Mean ([1]; 1 mg/kg): 1442 10^3 cells
Red blood cells, Mean ([1]; 1 mg/kg): 892 10^4 cells
White blood cells, Mean ([1]; 1 mg/kg): 399 10 cells
Platelets, Mean ([1]; 10 mg/kg): 1380 10^3 cells
Red blood cells, Mean ([1]; 10 mg/kg): 915 10^4 cells
White blood cells, Mean ([1]; 10 mg/kg): 378 10 cells
Platelets, Mean ([1]; 100 mg/kg): 1519 10^3 cells
Red blood cells, Mean ([1]; 100 mg/kg): 876 10^4 cells
White blood cells, Mean ([1]; 100 mg/kg): 347 10 cells
concentration at 1 h ([2]; hippocampus, 1 h after administration, read-out: Concentration Hippocampus, Mean): 640 ng/g
concentration at 1 h ([2]; plasma, 1 h after administration, read-out: Concentration Plasma, Mean): 2950 ng/mL
Structure (SMILES): Cc1nnc(NC(=O)c2cc([C@@H]3C[C@H]3NC3CCC3)c(C)s2)s1 [Example 99, 4-((1S,2R)-2-(cyclobutylamino)cyclopropyl)-5-methyl-N-(5-methyl-1,3,4-thiadiazol-2-yl)thiophene-2-carboxamide hydrochloride]

Platelets, Mean ([1]; 1 mg/kg, sulfate): 1051 10^3 cells
Red blood cells, Mean ([1]; 1 mg/kg, sulfate): 853 10^4 cells
White blood cells, Mean ([1]; 1 mg/kg, sulfate): 299 10 cells
Platelets, Mean ([1]; 10 mg/kg, sulfate): 1158 10^3 cells
Red blood cells, Mean ([1]; 10 mg/kg, sulfate): 907 10^4 cells
White blood cells, Mean ([1]; 10 mg/kg, sulfate): 312 10 cells
Platelets, Mean ([1]; 100 mg/kg, sulfate): 1176 10^3 cells
Red blood cells, Mean ([1]; 100 mg/kg, sulfate): 881 10^4 cells
White blood cells, Mean ([1]; 100 mg/kg, sulfate): 245 10 cells
Concentration Hippocampus, Mean [2, 3]: 0.151 µg/g
Concentration Plasma, Mean [2, 3]: 405 ng/mL
Structure (SMILES): Cc1nnc(NC(=O)c2cc([C@@H]3C[C@H]3NC3CCC3)cs2)s1 [Example 118, 4-((1S,2R)-2-(cyclobutylamino)cyclopropyl)-N-(5-methyl-1,3,4-thiadiazol-2-yl)thiophene-2-carboxamide sulfate]

Platelets, Mean ([1]; 1 mg/kg, hydrochloride): 1086 10^3 cells
Red blood cells, Mean ([1]; 1 mg/kg, hydrochloride): 846 10^4 cells
White blood cells, Mean ([1]; 1 mg/kg, hydrochloride): 390 10 cells
Platelets, Mean ([1]; 10 mg/kg, hydrochloride): 1234 10^3 cells
Red blood cells, Mean ([1]; 10 mg/kg, hydrochloride): 854 10^4 cells
White blood cells, Mean ([1]; 10 mg/kg, hydrochloride): 368 10 cells
Platelets, Mean ([1]; 100 mg/kg): 1333 10^3 cells
Red blood cells, Mean ([1]; 100 mg/kg): 866 10^4 cells
White blood cells, Mean ([1]; 100 mg/kg): 380 10 cells
concentration at 0.5 h ([2]; hippocampus, read-out: Concentration Hippocampus, Mean): 369 ng/g
concentration at 0.5 h ([2]; plasma, read-out: Concentration Plasma, Mean): 1110 ng/mL
Structure (SMILES): Cc1sc(C(=O)Nc2cnn(C)c2)cc1[C@@H]1C[C@H]1NC1CCC1 [Example 123, 4-((1S,2R)-2-(cyclobutylamino)cyclopropyl)-5-methyl-N-(1-methyl-1H-pyrazol-4-yl)thiophene-2-carboxamide hydrochloride]
